Data as given in US9113629B2, “4-amino-6-(4-substituted-phenyl)-picolinates and 6-amino-2-(4-substituted-phenyl)-pyrimidine-4-carboxylates and their use as herbicides” (DOW AGROSCIENCES LLC, priority 2013, dated 2015).
Where two headings read alike, the source gives them in different places.

How the values were obtained:
[1] = test system: Key Broadleaf Weed and Crop Species; assay: Post-emergent Test II herbicidal activity (Table 5); type: in vivo; conditions: post-emergence, 336 h, post-emergent, 14 days after application; for pest or weed control at 70 g/ha: 70 g ai/ha; for pest or weed control at 140 g/ha: 140 g ai/ha
In short: (§1)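 Greenhouse-grown plants at first or second true leaf stage were sprayed post-emergence with compound in acetone/DMSO-based aqueous spray containing crop oil concentrate and surfactant, at 187 L/ha, highest rate plus ½× to 1/16× dilutions. After 14 d, injury was scored visually versus untreated plants, 0 (none) to 100% (complete kill).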

[2] = test system: Key Grass and Sedge Weeds as well as Grass Crops; assay: Post-emergent Test II herbicidal activity (Table 6); type: in vivo; conditions: post-emergence, 336 h; for pest or weed control at 70 g/ha: application rate 70 g ai/ha; for pest or weed control at 140 g/ha: application rate 140 g ai/ha
In short: as §1

[3] = ABUTH: velvetleaf (Abutilon theophrasti), read-out: Visual Growth Reduction (%) 14 Days After Application ABUTH
[4] = AMARE: redroot pigweed (Amaranthus retroflexus), read-out: Visual Growth Reduction (%) 14 Days After Application AMARE
[5] = BRSNN: oilseed-rape, canola (Brassica napus), read-out: Visual Growth Reduction (%) 14 Days After Application BRSNN
[6] = CHEAL: lambsquarters (Chenopodium album), read-out: Visual Growth Reduction (%) 14 Days After Application CHEAL
[7] = EPHHL: wild poinsettia (Euphorbia heterophylla), read-out: Visual Growth Reduction (%) 14 Days After Application EPHHL
[8] = HELAN: sunflower (Helianthus annuus), read-out: Visual Growth Reduction (%) 14 Days After Application HELAN
[9] = VIOTR: wild pansy (Viola tricolor), read-out: Visual Growth Reduction (%) 14 Days After Application VIOTR
[10] = Triticum aestivum, TRZSS (wheat), read-out: Visual Growth Reduction (%) 14 Days After Application, TRZSS
[11] = CYPES: yellow nutsedge (Cyperus esculentus), read-out: Visual Growth Reduction (%) 14 Days After Application, CYPES
[12] = DIGSA: crabgrass (Digitaria sanguinalis), read-out: Visual Growth Reduction (%) 14 Days After Application, DIGSA
[13] = ECHCG: barnyardgrass (Echinochloa crus-galli), read-out: Visual Growth Reduction (%) 14 Days After Application, ECHCG
[14] = ORYSA: rice (Oryza sativa), read-out: Visual Growth Reduction (%) 14 Days After Application, ORYSA
[15] = SETFA: giant foxtail (Setaria faberi), read-out: Visual Growth Reduction (%) 14 Days After Application, SETFA
[16] = SORVU: grain sorghum (Sorghum vulgare), read-out: Visual Growth Reduction (%) 14 Days After Application, SORVU
[17] = ZEAMX: maize, corn (Zea mays), read-out: Visual Growth Reduction (%) 14 Days After Application, ZEAMX

With `C#Cc1ccc(-c2nc(C(=O)OC)c(C=C)c(N)c2F)cc1` [Compound 60, methyl 4-amino-6-(4-ethynylphenyl)-5-fluoro-3-vinylpicolinate] the pest or weed control at 70 g/ha [1, 3] was 0 to 29%, the pest or weed control at 140 g/ha [1, 3] was 0 to 29% and the pest or weed control at 70 g/ha [1, 4] was 0 to 29%. The pest or weed control at 140 g/ha [1, 4] was 0 to 29%, the pest or weed control at 70 g/ha [1, 5] was 0 to 29% and the pest or weed control at 140 g/ha [1, 5] was 0 to 29%. The pest or weed control at 70 g/ha [1, 6] was 0 to 29%, the pest or weed control at 140 g/ha [1, 6] was 0 to 29% and the pest or weed control at 70 g/ha [1, 7] was 0 to 29%. It also gave a pest or weed control at 140 g/ha [1, 7] of 0 to 29%, a pest or weed control at 70 g/ha [1, 8] of 45 to 59% and a pest or weed control at 140 g/ha [1, 8] of 75 to 84%. The pest or weed control at 70 g/ha [1, 9] was 0 to 29%, the pest or weed control at 140 g/ha [1, 9] was 0 to 29% and the pest or weed control at 70 g/ha [2, 10] was 0 to 29%. The pest or weed control at 140 g/ha [2, 10] was 0 to 29%, the pest or weed control at 70 g/ha [2, 11] was 0 to 29% and the pest or weed control at 140 g/ha [2, 11] was 0 to 29%. It also gave a pest or weed control at 70 g/ha [2, 12] of 0 to 29%, a pest or weed control at 140 g/ha [2, 12] of 0 to 29% and a pest or weed control at 70 g/ha [2, 13] of 0 to 29%. It also gave a pest or weed control at 140 g/ha [2, 13] of 0 to 29%, a pest or weed control at 70 g/ha [2, 14] of 0 to 29% and a pest or weed control at 140 g/ha [2, 14] of 0 to 29%. The pest or weed control at 70 g/ha [2, 15] was 0 to 29%, the pest or weed control at 140 g/ha [2, 15] was 0 to 29% and the pest or weed control at 70 g/ha [2, 16] was 0 to 29%. It also gave a pest or weed control at 140 g/ha [2, 16] of 0 to 29%, a pest or weed control at 70 g/ha [2, 17] of 0 to 29% and a pest or weed control at 140 g/ha [2, 17] of 0 to 29%.
